Reference: patent publication US9315475B2 (MERCK SHARP & DOHME CORP., priority 2011, dated 2016)
Structures can show the parent of a compound that is named as a salt.

What was measured:
wildtype HIV-1 protease = target: T1, wildtype HIV-1 protease (Human immunodeficiency virus type 1 group M subtype B, UniProt P04585); experiment: Assay for inhibition of microbial expressed HIV protease (Pepcleav); format: biochemical; conditions: wild type HIV-1 protease expressed in E. coli, peptide substrate, pH 5.5; mean of at least two independent experiments; read-out: Pepcleav
T1 construct: the wildtype HIV-1 protease (which was expressed in Escherichia coli); made in house; host or cells: Escherichia coli
Method in brief: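 Cleavage of 400 μM peptide substrate Val-Ser-Gln-Asn-(βnaphthyl)Ala-Pro-Ile-Val by 20 pM wild-type enzyme (E. coli-expressed) ran 1 h at 30 °C after 30 min inhibitor preincubation, pH 5.5 acetate buffer. Inhibition derived from product peak area by C18 LC with multiple-reaction-monitoring MS after formic acid quench.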

HIV-1 (H9IIIB strain) = experiment: Antiviral acute infection assay in cell culture (Spread); format: cell-based; conditions: Human immunodeficiency virus 1, T-lymphoid, HIV-1 H9IIIB infection of MT-4 human T-lymphoid cells in 10% FBS; mean of at least two independent experiments
From the text: Antiviral Assays in Cell Culture (“Spread”)
Acute Infection Assay (“Spread”) data were generated using HIV-1 (H9IIIB strain) infection of MT-4 human T-lymphoid cells in 10% FBS, and according to the methods disclosed by J. P. Vacca et al, “L-735,524: An orally bioavailable human immunodeficiency virus type 1 protease inhibitor,” Proc. Natl. Acad. Sci. USA, Vol. 91, pp. 4096-4100 (April 1994).

Compound | IC50 (wildtype HIV-1 protease) | EC50 (HIV-1 (H9IIIB strain))
O=C(C[C@@H](c1ccc(F)cc1)c1cc(F)cc(F)c1)Nc1cncc(F)c1CC[C@@H]1CNC(COC(=O)NCC(F)(F)F)CO1 (stereo in doubt) [Example 89, (3S)-3-(4-Fluorophenyl)-3-(3,5-difluorophenyl)-N-(5-fluoro-4-(2-((2R,5R)-5-(2,2,2-trifluoroethylaminocarbonyloxymethyl)morpholine-2-yl)ethyl)pyridin-3-yl)propanamide] | 0.0014 µM | 0.013 µM
N[C@H](C(=O)Nc1cncc(F)c1CC[C@@H]1CNC(COC(=O)NCC(F)(F)F)CO1)[C@@H](c1ccc(F)cc1)c1cc(F)cc(F)c1 (stereo in doubt) [Example 90, (2S,3S)-2-Amino-3-(4-fluorophenyl)-3-(3,5-difluorophenyl)-N-(5-fluoro-4-(2-((2R,5R)-5-(2,2,2-trifluoroethylaminocarbonyloxymethyl)morpholine-2-yl)ethyl)pyridin-3-yl)propanamide] | 0.0024 µM | 0.049 µM
COC(=O)N[C@H](C(=O)Nc1cncc(F)c1CC[C@@H]1CNC(COC(=O)NCC(F)(F)F)CO1)[C@@H](c1ccc(F)cc1)c1cc(F)cc(F)c1 (stereo in doubt) [Example 91, (2S,3S)-2-(Methoxycarbonylamino)-3-(4-fluorophenyl)-3-(3,5-difluorophenyl)-N-(5-fluoro-4-(2-((2R,5R)-5-(2,2,2-trifluoroethylaminocarbonyloxymethyl)morpholine-2-yl)ethyl)pyridin-3-yl)propanamide] | 0.003 µM | 0.016 µM
N[C@H](C(=O)Nc1cncc(F)c1CC[C@@H]1CN[C@H](COC(=O)NCC(F)(F)F)CO1)[C@H](c1ccc(F)cc1)c1cccc(F)c1 (stereo in doubt) [Example 92] | 0.0044 µM | 0.043 µM
N[C@H](C(=O)Nc1cncc(F)c1CC[C@@H]1CNC(COC(=O)NCC(F)(F)F)CO1)[C@@H](c1ccc(F)cc1)c1cccc(Cl)c1 (stereo in doubt) [Example 93, (2S,3S)-2-Amino-3-(3-chlorophenyl)-3-(4-fluorophenyl)-N-(5-fluoro-4-(2-((2R,5R)-5-(2,2,2-trifluoroethylaminocarbonyloxymethyl)morpholine-2-yl)ethyl)pyridin-3-yl)propanamide] | 0.0017 µM | 0.052 µM
N[C@H](C(=O)Nc1cncc(F)c1CC[C@@H]1CN[C@H](COC(=O)NCC(F)(F)F)CO1)C(c1ccc(F)cc1)c1ccc(F)cc1 [Example 79, 4-Fluoro-β-(4-fluorophenyl)-N-(5-fluoro-4-{2-[(2R,5S)-5-({[(2,2,2-trifluoroethyl)carbamoyl]oxy}methyl)morpholin-2-yl]ethyl}pyridin-3-yl)-L-phenylalaninamide trihydrochloride] | 0.0036 µM | 0.037 µM
N[C@H](C(=O)Nc1cccc(F)c1CC[C@@H]1CN[C@H](COC(=O)NCC(F)(F)F)CO1)C(c1ccc(F)cc1)c1ccc(F)cc1 [Example 80, 4-Fluoro-β-(4-fluorophenyl)-N-(3-fluoro-2-{2-[(2R,5S)-5-({[(2,2,2-trifluoroethyl)carbamoyl]oxy}methyl)morpholin-2-yl]ethyl}phenyl)-L-phenylalaninamide dihydrochloride] | 0.0094 µM | 0.045 µM
N[C@H](C(=O)Nc1cccc(F)c1OC[C@@H]1CN[C@H](COC(=O)NCC(F)(F)F)CO1)C(c1ccc(F)cc1)c1ccc(F)cc1 [Example 82, ((3S,6S)-6-((2-((S)-2-amino-3,3-bis(4-fluorophenyl)propanamido)-6-fluorophenoxy)methyl)morpholin-3-yl)methyl (2,2,2-trifluoroethyl)carbamate] | 0.011 µM | 0.04 µM
N[C@H](C(=O)Nc1cncc(F)c1CC[C@@H]1CN[C@H](COC(=O)NCC(F)(F)F)CO1)[C@H](c1ccccc1)c1ccc(Cl)cc1 [Example 95, (βR)-β-(4-Chlorophenyl)-N-(5-fluoro-4-{2-[(2R,5S)-5-({[(2,2,2-trifluoroethyl)carbamoyl]oxy}methyl)morpholin-2-yl]ethyl}pyridin-3-yl)-L-phenylalaninamide] | 0.0004 µM | 0.016 µM
N[C@H](C(=O)Nc1cncc(F)c1CC[C@@H]1CN[C@H](COC(=O)NCC(F)(F)F)CO1)[C@H](c1ccc(F)cc1)c1ccc2ccccc2c1 [Example 96, (βR)-4-Fluoro-N-(5-fluoro-4-{2-[(2R,5S)-5-({[(2,2,2-trifluoroethyl)carbamoyl]oxy}methyl)morpholin-2-yl]ethyl}pyridin-3-yl)-β-naphthalen-2-yl-L-phenylalaninamide] | 0.0099 µM | 0.073 µM
N[C@H](C(=O)Nc1cncc(F)c1CC[C@@H]1CN[C@H](COC(=O)NCC(F)(F)F)CO1)[C@@H](c1ccc(Cl)cc1)c1cc(F)cc(F)c1 [Example 97, (βS)-β-(4-Chlorophenyl)-3,5-difluoro-N-(5-fluoro-4-{2-[(2R,5S)-5-({[(2,2,2-trifluoroethyl)carbamoyl]oxy}methyl)morpholin-2-yl]ethyl}pyridin-3-yl)-L-phenylalaninamide] | 0.0008 µM | 0.017 µM
COC(=O)N[C@H](C(=O)Nc1cncc(F)c1CC[C@@H]1CN[C@H](COC(=O)NCC(F)(F)F)CO1)[C@H](c1ccccc1)c1ccc(Cl)cc1 [Example 107, (βR)-β-(4-Chlorophenyl)-N-(5-fluoro-4-{2-[(2R,5S)-5-({[(2,2,2-trifluoroethyl)carbamoyl]oxy}methyl)morpholin-2-yl]ethyl}pyridin-3-yl)-Nα-(methoxycarbonyl)-L-phenylalaninamide] | 0.0003 µM | 0.011 µM
NC(=O)OC[C@@H]1CO[C@H](CCc2c(F)cccc2NC(=O)[C@@H](N)C(c2ccc(F)cc2)c2ccc(F)cc2)CN1 [Example 116, N-[2-(2-{(2R,5S)-5-[(Carbamoyloxy)methyl]morpholin-2-yl}ethyl)-3-fluorophenyl]-4-fluoro-β-(4-fluorophenyl)-L-phenylalaninamide] | 0.017 µM | 0.047 µM
COC(=O)N[C@H](C(=O)Nc1cccc(F)c1CC[C@@H]1CN[C@H](COC(=O)NCC(C)(C)O)CO1)C(c1ccc(F)cc1)c1ccc(F)cc1 [Example 121, 4-Fluoro-N-(3-fluoro-2-{2-[(2R,5S)-5-({[(2-hydroxy-2-methylpropyl)carbamoyl]oxy}methyl)morpholin-2-yl]ethyl}phenyl)-β-(4-fluorophenyl)-Nα-(methoxycarbonyl)-L-phenylalaninamide] | 0.0025 µM | 0.01 µM
CC1(CNC(=O)OC[C@@H]2CO[C@H](CCc3c(F)cncc3NC(=O)[C@@H](N)C(c3ccc(F)cc3)c3ccc(F)cc3)CN2)CCCO1 (stereo partly drawn) [Example 123, 4-Fluoro-N-[5-fluoro-4-(2-{(2R,5S)-5-[({[(2-methyltetrahydrofuran-2-yl)methyl]carbamoyl}oxy)methyl]morpholin-2-yl}ethyl)pyridin-3-yl]-β-(4-fluorophenyl)-L-phenylalaninamide] | 0.0032 µM | 0.019 µM
COC(=O)N[C@H](C(=O)Nc1cccc(F)c1CC[C@@H]1CN[C@H](COC(=O)NCC(F)(F)F)CO1)[C@@H](c1ccc(F)cc1)C1CCOCC1 [Example 130, (βR)-4-Fluoro-N-(3-fluoro-2-{2-[(2R,5S)-5-({[(2,2,2-trifluoroethyl)carbamoyl]oxy}methyl)morpholin-2-yl]ethyl}phenyl)-Nα-(methoxycarbonyl)-β-(tetrahydro-2H-pyran-4-yl)-L-phenylalaninamide] | 0.068 µM | 0.026 µM
CC(C)COC(=O)N[C@H](C(=O)Nc1cncc(F)c1CC[C@@H]1CN[C@H](COC(=O)NCC(F)(F)F)CO1)C(c1ccc(F)cc1)c1ccc(F)cc1 [Example 140, 4-Fluoro-β-(4-fluorophenyl)-N-(5-fluoro-4-{2-[(2R,5S)-5-({[(2,2,2-trifluoroethyl)carbamoyl]oxy}methyl)morpholin-2-yl]ethyl}pyridin-3-yl)-Nα-[(2-methylpropoxy)carbonyl]-L-phenylalaninamide] | 0.0021 µM | 0.021 µM
O=C(CC(c1ccccc1)c1ccccc1)Nc1cncc(F)c1CC[C@@H]1CN[C@H](COC(=O)NCC(F)(F)F)CO1 [Example 146, [(3S,6R)-6-(2-{3-[(3,3-diphenylpropanoyl)amino]-5-fluoropyridin-4-yl}ethyl)morpholin-3-yl]methyl (2,2,2-trifluoroethyl)carbamate] | 0.013 µM | 0.047 µM
COC(=O)N[C@H](C(=O)Nc1cncc(F)c1CC[C@@H]1CN[C@H](COC(=O)NCC(F)(F)F)CO1)[C@@H](c1ccc(F)cc1)c1cccc(F)c1F [Example 302, (βS)-2,3-difluoro-β-(4-fluorophenyl)-N-(5-fluoro-4-{2-[(2R,5S)-5-({[(2,2,2-trifluoroethyl)carbamoyl]oxy}methyl)morpholin-2-yl]ethyl}pyridin-3-yl)-Nα-(methoxy-carbonyl)-L-phenylalaninamide] | – | 0.015 µM
COC(=O)N[C@H](C(=O)Nc1cccc(F)c1CC[C@@H]1CN[C@H](COC(=O)NCC(F)(F)F)CO1)[C@@H](c1ccc(F)cc1)c1ccc(OC(F)(F)F)cc1 [Example 304, (βR)-β-(4-fluorophenyl)-N-(3-fluoro-2-{2-[(2R,5S)-5-({[(2,2,2-trifluoroethyl)carbamoyl]oxy}methyl)morpholin-2-yl]ethyl}phenyl)-Nα-(methoxy-carbonyl)-O-(trifluoromethyl)-L-tyrosinamide] | – | 0.033 µM
